One test deals with EW-12. In words: SANGER: Inhibition of human EW-12 cell growth in a cell viability assay. Format: functional, cell-based.
The subject of a further test is L-540. In words: cells. Format: functional, cell-based, Homo sapiens. The settings on record: Homo sapiens, L-540.
For a further test, the system named is LOUCY. In words: cells. The format is functional, cell-based, Homo sapiens. To be noted: Homo sapiens, LOUCY.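 Note: growth inhibition of human LOUCY cells, read out with a cell viability assay.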
Another test concerns NCI-H1882. In words: cells. The format is functional, cell-based, Homo sapiens. The settings on record: Homo sapiens, NCI-H1882.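 Note: growth inhibition of the cell line, determined with a viability assay.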
The next test deals with NCI-H345. In words: cells. The format is functional, cell-based, Homo sapiens. The settings on record: Homo sapiens, NCI-H345.
The next test deals with NCI-H889. In words: cells. Format: functional, cell-based, Homo sapiens. The settings on record: Homo sapiens, NCI-H889.
In another test the test system is SNU-16. In words: cells. To be noted: Homo sapiens, SNU-16. The format is functional, cell-based, Homo sapiens.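 Note: growth inhibition of human SNU-16 cells, determined with a cell viability readout.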
The test system of a further test is OPM-2. In words: cells. Format: functional, cell-based, Homo sapiens. To be noted: Homo sapiens, OPM-2.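 Note: growth of OPM-2 cells measured with a viability assay, IC50 for suppression of proliferation.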
The next test has as its system REH. In words: cells. The format is functional, cell-based, Homo sapiens. To be noted: Homo sapiens, REH.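 Note: growth inhibition of REH cells determined with a cell viability read-out.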
Another test concerns RPMI 8402. In words: SANGER: Inhibition of human RPMI-8402 cell growth in a cell viability assay. The format is functional, cell-based. The settings on record: Homo sapiens, RPMI 8402.
Another test deals with SKM-1. In words: SANGER: Inhibition of human SKM-1 cell growth in a cell viability assay. The format is functional, cell-based.
The next test has as its system TALL-1. In words: cells. To be noted: Homo sapiens, TALL-1. The format is functional, cell-based, Homo sapiens.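 Note: growth inhibition of cultured human TALL-1 cells, read out by a cell viability assay.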
The subject of the next test is UACC-812. In words: cells. Format: functional, cell-based, Homo sapiens. To be noted: Homo sapiens, UACC-812.
In the next test the test system is CHP-126. In words: cells. The format is functional, cell-based, Homo sapiens. The settings on record: Homo sapiens, CHP-126.
The next test has as its system COR-L105. In words: cells. The settings on record: Homo sapiens, COR-L105. Format: functional, cell-based, Homo sapiens.
For a further test, the system named is DU-145. In words: cells. The format is functional, cell-based, Homo sapiens. To be noted: Homo sapiens, DU-145.
Another test concerns EFM-19. In words: cells. The settings on record: Homo sapiens, EFM-19. The format is functional, cell-based, Homo sapiens.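 Note: growth inhibition of human EFM-19 cells, measured in a cell viability assay.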
A further test has as its system GCT. In words: cells. The format is functional, cell-based, Homo sapiens. To be noted: Homo sapiens, GCT.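 Note: GCT cell line proliferation inhibition, read out with a cell viability assay.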
In another test the test system is HuP-T4. In words: cells. The format is functional, cell-based, Homo sapiens. To be noted: Homo sapiens, HuP-T4.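 Note: cell viability assay measuring how much HuP-T4 cell growth is inhibited.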
The next test concerns LCLC-103H cell line. In words: cells. Format: functional, cell-based, Homo sapiens. The settings on record: Homo sapiens, LCLC-103H.
A further test deals with NCI-H1666. In words: cells. To be noted: Homo sapiens, NCI-H1666. The format is functional, cell-based, Homo sapiens.
For another test, the system named is OAW-28. In words: cells. To be noted: Homo sapiens, OAW-28. Format: functional, cell-based, Homo sapiens.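 Note: growth inhibition of OAW-28 cells, read out with a cell viability assay.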
Another test has as its system Panc1005. In words: cells. The format is functional, cell-based, Homo sapiens. The settings on record: Homo sapiens, Panc1005.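 Note: growth inhibition of human PANC-10-05 cells, measured by a cell viability assay.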
The test system of another test is SAS. In words: cells. The format is functional, cell-based, Homo sapiens. The settings on record: Homo sapiens, SAS.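 Note: growth inhibition of SAS cells, read out with a cell viability assay.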
Another test has as its system SBC-5. In words: cells. Format: functional, cell-based, Homo sapiens. To be noted: Homo sapiens, SBC-5.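 Note: cell viability assay read-out, IC50 is the concentration that inhibits growth of the cells.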
The next test relates to SCC-4. In words: cells. The format is functional, cell-based, Homo sapiens. To be noted: Homo sapiens, SCC-4.
A further test concerns SK-MEL-28. In words: cells. Format: functional, cell-based, Homo sapiens. The settings on record: Homo sapiens, SK-MEL-28.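 Note: growth inhibition of human SK-MEL-28 cells, read out with a cell viability assay.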
Another test deals with SW780. In words: cells. The format is functional, cell-based, Homo sapiens. The settings on record: Homo sapiens, SW780.
The subject of the next test is 647-V. In words: cells. Format: functional, cell-based, Homo sapiens. The settings on record: Homo sapiens, 647-V.
The test system of another test is BEN. In words: cells. The format is functional, cell-based, Homo sapiens. To be noted: Homo sapiens, BEN.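 Note: growth inhibition of the BEN cell line, read out with a cell viability assay.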
The next test concerns TI-73. In words: cells. To be noted: Homo sapiens, TI-73. The format is functional, cell-based, Homo sapiens.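 Note: cell viability assay measuring how much compounds suppress growth of the cultured cell line.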
A further test concerns UACC-62. In words: cells. Format: functional, cell-based, Homo sapiens. To be noted: Homo sapiens, UACC-62.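 Note: growth inhibition of human UACC-62 cells, read out by a cell viability assay.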
A further test relates to HCT-15. In words: cells. Format: functional, cell-based, Homo sapiens. The settings on record: Homo sapiens, HCT-15.

What is called IC50 is the midpoint of a concentration-inhibition curve.

Description for 647-V: SANGER: Inhibition of human 647-V cell growth in a cell viability assay.
Description for BEN: SANGER: Inhibition of human BEN cell growth in a cell viability assay.
Description for CHP-126: SANGER: Inhibition of human CHP-126 cell growth in a cell viability assay.
Description for COR-L105: SANGER: Inhibition of human COR-L105 cell growth in a cell viability assay.
Description for DU-145: SANGER: Inhibition of human DU-145 cell growth in a cell viability assay.
Description for EFM-19: SANGER: Inhibition of human EFM-19 cell growth in a cell viability assay.
Description for GCT: SANGER: Inhibition of human GCT cell growth in a cell viability assay.
Description for HCT-15: SANGER: Inhibition of human HCT-15 cell growth in a cell viability assay.
Description for HuP-T4: SANGER: Inhibition of human HuP-T4 cell growth in a cell viability assay.
Description for L-540: SANGER: Inhibition of human L-540 cell growth in a cell viability assay.
Description for LCLC-103H cell line: SANGER: Inhibition of human LCLC-103H cell growth in a cell viability assay.
Description for LOUCY: SANGER: Inhibition of human LOUCY cell growth in a cell viability assay.
Description for NCI-H1666: SANGER: Inhibition of human NCI-H1666 cell growth in a cell viability assay.
Description for NCI-H1882: SANGER: Inhibition of human NCI-H1882 cell growth in a cell viability assay.
Description for NCI-H345: SANGER: Inhibition of human NCI-H345 cell growth in a cell viability assay.
Description for NCI-H889: SANGER: Inhibition of human NCI-H889 cell growth in a cell viability assay.
Description for OAW-28: SANGER: Inhibition of human OAW-28 cell growth in a cell viability assay.
Description for OPM-2: SANGER: Inhibition of human OPM-2 cell growth in a cell viability assay.
Description for Panc1005: SANGER: Inhibition of human PANC-10-05 cell growth in a cell viability assay.
Description for REH: SANGER: Inhibition of human REH cell growth in a cell viability assay.
Description for SAS: SANGER: Inhibition of human SAS cell growth in a cell viability assay.
Description for SBC-5: SANGER: Inhibition of human SBC-5 cell growth in a cell viability assay.
Description for SCC-4: SANGER: Inhibition of human SCC-4 cell growth in a cell viability assay.
Description for SK-MEL-28: SANGER: Inhibition of human SK-MEL-28 cell growth in a cell viability assay.
Description for SNU-16: SANGER: Inhibition of human NCI-SNU-16 cell growth in a cell viability assay.
Description for SW780: SANGER: Inhibition of human SW780 cell growth in a cell viability assay.
Description for TALL-1: SANGER: Inhibition of human TALL-1 cell growth in a cell viability assay.
Description for TI-73: SANGER: Inhibition of human TI-73 cell growth in a cell viability assay.
Description for UACC-62: SANGER: Inhibition of human UACC-62 cell growth in a cell viability assay.
Description for UACC-812: SANGER: Inhibition of human UACC-812 cell growth in a cell viability assay.

Consider `CC[C@H](CO)Nc1nc(NCc2ccccc2)c2ncn(C(C)C)c2n1` [SELICICLIB], for which the IC50 in the test on EW-12, in the test with L-540, in the test with LOUCY, in the test on NCI-H1882, in the test with NCI-H345 and in the test with NCI-H889 was more than 16 µM in each case. For the same molecule, the IC50 in the test with SNU-16 is more than 16 µM; in the test with OPM-2, more than 16 µM; with REH, more than 16 µM; in the test on RPMI 8402, 13.6 µM; with SKM-1, more than 16 µM; with TALL-1, more than 16 µM. The IC50 with UACC-812 and in the test on CHP-126 was more than 16 µM each time.

As to `CC1(C)CNc2cc(NC(=O)c3cccnc3NCc3ccncc3)ccc21` [MOTESANIB], the IC50 with COR-L105 is more than 2 µM; in the test on DU-145, 0.469 µM; in the test on EFM-19, more than 2 µM; in the test on GCT, more than 2 µM; in the test on HuP-T4, more than 2 µM; in the test with LCLC-103H cell line, more than 2 µM. Further, the IC50 with NCI-H1666, with OAW-28, in the test on Panc1005, in the test on SAS, with SBC-5 and in the test with SCC-4 was more than 2 µM each time. The IC50 in the test with SK-MEL-28, in the test with SW780, with 647-V, with BEN, in the test on TI-73 and in the test on UACC-62 was more than 2 µM in each case.

Turning to `C#Cc1cccc(Nc2ncnc3cc(OCCOC)c(OCCOC)cc23)c1` [ERLOTINIB], the IC50 in the test on EW-12, in the test on L-540, in the test on LOUCY, in the test on NCI-H1882, with NCI-H345 and in the test with SNU-16 was more than 2 µM each time. Besides, the IC50 with OPM-2, in the test on REH, in the test on SKM-1, in the test on UACC-812 and with CHP-126 was more than 2 µM in each case.

As to `Cn1cnc2c(F)c(Nc3ccc(Br)cc3Cl)c(C(=O)NOCCO)cc21` [SELUMETINIB], the IC50 in the test on COR-L105 is 3.13 µM; in the test with DU-145, more than 4 µM; with EFM-19, more than 4 µM; with GCT, more than 4 µM; with HuP-T4 it was 0.195 µM; in the test on LCLC-103H cell line, more than 4 µM. For the same molecule, the IC50 in the test with OAW-28 was 1.74 µM; with Panc1005, more than 4 µM; with SAS, more than 4 µM; in the test with SBC-5, more than 4 µM; with SCC-4, more than 4 µM; in the test with SW780, 0.666 µM. Further, the IC50 with 647-V, in the test with BEN, with TI-73 and in the test with UACC-62 was more than 4 µM throughout.

Consider `CC(C)CCN1c2nc(Nc3cc(F)c(O)c(F)c3)ncc2N(C)C(=O)C1C` (configuration not stated), for which the IC50 in the test with COR-L105 was more than 5 µM; with DU-145 it was 2.11 µM; in the test on EFM-19, more than 5 µM; in the test on GCT it was 2.31 µM; in the test with HCT-15 it was more than 5 µM; in the test with HuP-T4 it was more than 5 µM. In addition, the IC50 in the test with LCLC-103H cell line, in the test with NCI-H1666, with OAW-28, with Panc1005, with SAS and in the test on SBC-5 was more than 5 µM each time. For the same molecule, the IC50 with SCC-4 was 3.09 µM; in the test on SK-MEL-28 it was more than 5 µM; in the test with SW780, more than 5 µM; in the test with 647-V, more than 5 µM; in the test with BEN it was more than 5 µM; in the test with TI-73, more than 5 µM. Also, the IC50 in the test with UACC-62 was more than 5 µM.

For the molecule `COc1cc2ncn(-c3cc(OCc4ccccc4S(C)(=O)=O)c(C#N)s3)c2cc1OC` [GSK-319347A], the IC50 with EW-12, in the test on L-540, in the test with LOUCY, in the test on NCI-H1882, in the test on NCI-H345 and in the test with NCI-H889 was more than 5 µM each time. Besides, the IC50 in the test on SNU-16, with OPM-2, in the test with REH, in the test with RPMI 8402 (read-out: IC50), in the test with SKM-1 and in the test on TALL-1 was more than 5 µM each time. Moreover, the IC50 in the test on UACC-812 and with CHP-126 was more than 5 µM throughout.

Consider `COc1cc(N2CCN(C)CC2)ccc1Nc1ncc2c(n1)N(C)c1ccccc1C(=O)N2C`, for which the IC50 with EW-12, with L-540, in the test on LOUCY, in the test with NCI-H1882, in the test with NCI-H345 and in the test with NCI-H889 was more than 8 µM in each case. Also, the IC50 was more than 8 µM in the test on SNU-16; 3.3 µM with OPM-2; more than 8 µM in the test with REH; 4.5 µM in the test on RPMI 8402 (read-out: IC50); more than 8 µM in the test on SKM-1; more than 8 µM with TALL-1. For the same molecule, the IC50 with UACC-812 and with CHP-126 was more than 8 µM each time.

Regarding `CCN(CC)CCCCNc1ncc2cc(-c3cc(OC)cc(OC)c3)c(NC(=O)NC(C)(C)C)nc2n1` [PD-173074], the IC50 is more than 2 µM with COR-L105; 1.58 µM in the test on DU-145; more than 2 µM with EFM-19; more than 2 µM in the test on GCT; more than 2 µM in the test on HuP-T4; more than 2 µM in the test with LCLC-103H cell line. Further, the IC50 in the test with NCI-H1666, with OAW-28, in the test on Panc1005, in the test on SAS, in the test with SBC-5 and in the test on SCC-4 was more than 2 µM throughout. In addition, the IC50 in the test on SK-MEL-28, in the test with SW780, in the test with 647-V, with BEN, in the test on TI-73 and in the test on UACC-62 was more than 2 µM throughout.

As to `COc1cc2c(Nc3ccc(NC(=O)c4ccccc4)cc3)ncnc2cc1OCCCN1CCOCC1`, the IC50 with COR-L105 was more than 4 µM; in the test on DU-145, more than 4 µM; in the test with EFM-19, more than 4 µM; in the test on GCT, 3.77 µM; with HuP-T4, more than 4 µM; in the test with LCLC-103H cell line, more than 4 µM. Besides, the IC50 with NCI-H1666, with OAW-28, in the test with Panc1005, in the test on SAS, in the test on SBC-5 and in the test on SCC-4 was more than 4 µM each time. The concentration for half-maximal inhibition (IC50) in the test with SK-MEL-28 was more than 4 µM; in the test with SW780, 3.06 µM; with 647-V, more than 4 µM; in the test with BEN it was more than 4 µM; in the test with TI-73, more than 4 µM; in the test on UACC-62 it was more than 4 µM.

The values are drawn from ChEMBL document CHEMBL1201861, “Genomics of Drug Sensitity in Cancer screening data, Wellcome Trust Sanger Institute”.
